Like-named read-outs stand apart in the source and are kept apart here.
Experiments:
[1] = test system: Clostridium difficile infection; experiment: Phase IIIb/IV randomized open-label EXTEND study (2819-MA-1002): extended fidaxomicin vs standard vancomycin; type: in vivo, human
Method: Fidaxomicin (FDX) is believed to reduce recurrence primarily through minimal collateral damage to colonic microflora. […] Subjects will receive 200 mg twice daily (b.i.d.) for 5 days from Day 1 to Day 5. From Day 6 to Day 25, subjects will receive 200 mg once daily on alternate days (first alternate day dose given on Day 7). This extension of the dose will allow a longer period for the protective microflora to recover and extend the period of time over which Clostridium difficile cells are suppressed, and kill any dormant spores that germinate. The extension of the dose also targets the early recurrence period documented in the phase 3 studies—the first 15 days after the end of therapy during which the majority of recurrences occurred. By covering this period this revised dosing regimen may reduce the recurrence to <10%, preferably to <5% and even more preferred to <3%. The impact on the gut microflora was limited supporting the rationale for this study.
The dosing of vancomycin (Vancocin™) to be administered in this study is in line with the SmPC for Vancocin. Subjects will receive 125 mg four times daily (q.i.d.) for 10 days from Day 1 to Day 10.
The dosage regimen was as described in Table 1 of Example 1.

[2] = test system: Clostridium difficile (C. diff) toxins A and B; experiment: Detection of C. difficile toxins A and B in human faecal samples by ELISA (EXTEND samples); type: in vivo
Method: The detection of Clostridium difficile (C. diff) toxins A and B in human faecal samples was performed by ELISA. The samples to be analysed originated from clinical study 2819-MA-1002 (EXTEND).
The samples were sent to LGC (Analytical lab in Fordham, Cambridgeshire, UK) packed in dry ice and upon receipt stored in a freezer (nominally −80° C.). For each patient a stool sample was collected at Day 0 (screening) and also in case of disease recurrence or an unscheduled visit. For subjects participating in the Microbiome sub-study stool samples were collected at: Day 0 (screening), Day 5, Day 12, Day 27, Day 40, Day 55 and in the case of disease recurrence or an unscheduled visit. A total of 596 faecal samples were collected during the study.
C. difficile toxins A and B in human faecal samples were detected using TECHLAB C. difficile Tox A/B II ELISA kits (Product Number T5015).
The assay readout is the spectrophotometric dual wavelength optical density (OD) read at 450 nm and referenced at 620 nm and expressed in Absorbance Units (AU). All samples were measured in duplicate. The presence (+) or absence (−) of toxin was reported together with the mean OD.
The acceptability of each batch of test samples was dependent on the data from the QC samples fulfilling the acceptance criteria outlined below in Table 5, in that all positive QCs remain above the cut off value of >0.080 OD and negative QCs remain ≤0.080 OD. All batches contained 2 separate sets of QC samples which were measured in duplicate. The precision was calculated between the OD of replicates of each set using the coefficient of variation (CV) which should be <20%.

[3] = test system: Clostridium difficile infection; conditions: Louie 2011; 200 mg Fidaxomicin twice daily or vancomycin 125 mg four times daily orally for 10 days; cited from earlier work
[4] = test system: Clostridium difficile infection; conditions: Cornely 2012; 200 mg Fidaxomicin twice daily or vancomycin 125 mg four times daily orally for 10 days; cited from earlier work
[5] = Day 55, extended fidaxomicin or standard vancomycin
[6] = Table 7, extended fidaxomicin regimen of Example 1 or standard vancomycin
[7] = extended fidaxomicin Day 55, standard vancomycin Day 40
[8] = Sub-study visit day 5, n = 20 per arm
[9] = Sub-study visit day 12, n = 20 per arm
[10] = Sub-study visit day 27, n = 20 Fidaxomicin, 17 Vancomycin

Q: What does the source list for CCc1c(Cl)c(O)c(Cl)c(O)c1C(=O)O[C@H]1[C@H](O)[C@H](OC)[C@H](OC/C2=C\C=C\C[C@H](O)/C(C)=C/[C@H](CC)[C@@H](O[C@@H]3OC(C)(C)[C@@H](OC(=O)C(C)C)[C@H](O)[C@@H]3O)/C(C)=C/C(C)=C/C[C@@H]([C@@H](C)O)OC2=O)O[C@@H]1C [fidaxomicin, 3-[[[6-deoxy-4-O-(3,5-dichloro-2-ethyl-4,6-dihydroxybenzoyl)-2-O-methyl-β-D-mannopyranosyl]oxy]methyl]-12(R)-[[6-deoxy-5-C-methyl-4-O-(2-methyl-1-oxopropyl)-β-D-lyxo-hexopyranosyl]oxy]-11 (S)-ethyl-8(S)-hydroxy-18(S)-(1(R)-hydroxyethyl)-9,13,15-trimethyloxacyclooctadeca-3,5,9,13,15-pentaene-2-one]?
A: Treatment Difference in sustained clinical cure rate (Extended Fidaxomicin − Standard Vancomycin) ([1]; 30 days after end of treatment): 23.8%; OR (Odds Ratio) vs. Vancomycin, sustained clinical cure ([1]; 30 days after end of treatment, extended fidaxomicin): 3.36; % of patients with <3 Unformed bowel movements per day (UBM) ([1]; Day 1): 23%; % of patients with ≥3 Unformed bowel movements per day (UBM) ([1]; Day 1): 77.0%; % of patients with <3 Unformed bowel movements per day (UBM) ([1]; Day 2): 33.8%; % of patients with ≥3 Unformed bowel movements per day (UBM) ([1]; Day 2): 66.2%; % of patients with <3 Unformed bowel movements per day (UBM) ([1]; Day 3): 59%; % of patients with ≥3 Unformed bowel movements per day (UBM) ([1]; Day 3): 41%; % of patients with <3 Unformed bowel movements per day (UBM) ([1]; Day 4): 66.9%; % of patients with ≥3 Unformed bowel movements per day (UBM) ([1]; Day 4): 33.1%; % of patients with <3 Unformed bowel movements per day (UBM) ([1]; Day 5): 73.9%; % of patients with ≥3 Unformed bowel movements per day (UBM) ([1]; Day 5): 26.1%; % of patients with <3 Unformed bowel movements per day (UBM) ([1]; Day 6): 73.9%; % of patients with ≥3 Unformed bowel movements per day (UBM) ([1]; Day 6): 26.1%; % of patients with <3 Unformed bowel movements per day (UBM) ([1]; Day 7): 84.8%; % of patients with ≥3 Unformed bowel movements per day (UBM) ([1]; Day 7): 15.2%; % of patients with <3 Unformed bowel movements per day (UBM) ([1]; Day 8): 89.1%; % of patients with ≥3 Unformed bowel movements per day (UBM) ([1]; Day 8): 10.9%; % of patients with <3 Unformed bowel movements per day (UBM) ([1]; Day 9): 91.3%; % of patients with ≥3 Unformed bowel movements per day (UBM) ([1]; Day 9): 8.7%; % of patients with <3 Unformed bowel movements per day (UBM) ([1]; Day 10): 92.6%; % of patients with ≥3 Unformed bowel movements per day (UBM) ([1]; Day 10): 7.4%; % of patients with <3 Unformed bowel movements per day (UBM) ([1]; Day 11): 93.3%; % of patients with ≥3 Unformed bowel movements per day (UBM) ([1]; Day 11): 6.7%; % of patients with <3 Unformed bowel movements per day (UBM) ([1]; Day 12): 94.8%; % of patients with ≥3 Unformed bowel movements per day (UBM) ([1]; Day 12): 5.2%; % of patients with <3 Unformed bowel movements per day (UBM) ([1]; Day 13): 93.3%; % of patients with ≥3 Unformed bowel movements per day (UBM) ([1]; Day 13): 6.7%; % of patients with <3 Unformed bowel movements per day (UBM) ([1]; Day 14): 95.6%; % of patients with ≥3 Unformed bowel movements per day (UBM) ([1]; Day 14): 4.4%; % of patients with <3 Unformed bowel movements per day (UBM) ([1]; Day 15): 94.8%; % of patients with ≥3 Unformed bowel movements per day (UBM) ([1]; Day 15): 5.2%; % of patients with <3 Unformed bowel movements per day (UBM) ([1]; Day 16): 95.5%; % of patients with ≥3 Unformed bowel movements per day (UBM) ([1]; Day 16): 4.5%; % of patients with <3 Unformed bowel movements per day (UBM) ([1]; Day 17): 95.5%; % of patients with ≥3 Unformed bowel movements per day (UBM) ([1]; Day 17): 4.5%; % of patients with <3 Unformed bowel movements per day (UBM) ([1]; Day 18): 94.0%; % of patients with ≥3 Unformed bowel movements per day (UBM) ([1]; Day 18): 6.0%; % of patients with <3 Unformed bowel movements per day (UBM) ([1]; Day 19): 95.5%; % of patients with ≥3 Unformed bowel movements per day (UBM) ([1]; Day 19): 4.5%; % of patients with <3 Unformed bowel movements per day (UBM) ([1]; Day 20): 97.8%; % of patients with ≥3 Unformed bowel movements per day (UBM) ([1]; Day 20): 2.2%; % of patients with <3 Unformed bowel movements per day (UBM) ([1]; Day 21): 95.5%; % of patients with ≥3 Unformed bowel movements per day (UBM) ([1]; Day 21): 4.5%; % of patients with <3 Unformed bowel movements per day (UBM) ([1]; Day 22): 96.3%; % of patients with ≥3 Unformed bowel movements per day (UBM) ([1]; Day 22): 3.7%; % of patients with <3 Unformed bowel movements per day (UBM) ([1]; Day 23): 95.5%; % of patients with ≥3 Unformed bowel movements per day (UBM) ([1]; Day 23): 4.5%; % of patients with <3 Unformed bowel movements per day (UBM) ([1]; Day 24): 96.2%; % of patients with ≥3 Unformed bowel movements per day (UBM) ([1]; Day 24): 3.8%; % of patients with <3 Unformed bowel movements per day (UBM) ([1]; Day 25): 96.2%; % of patients with ≥3 Unformed bowel movements per day (UBM) ([1]; Day 25): 3.8%; % of patients with <3 Unformed bowel movements per day (UBM) ([1]; Day 26): 97.3%; % of patients with ≥3 Unformed bowel movements per day (UBM) ([1]; Day 26): 2.7%; % of patients with <3 Unformed bowel movements per day (UBM) ([1]; Day 27): 98.5%; % of patients with ≥3 Unformed bowel movements per day (UBM) ([1]; Day 27): 1.5%; Treatment Difference in recurrence rate (Extended fidaxomicin − Standard vancomycin) ([1]; Day 55): −12.6%; OR (Odds Ratio) vs. Vancomycin, recurrence of CDI ([1]; Day 55, extended fidaxomicin): 0.21; Recurrence of CDI (%) at visit 5 (Day 55) [1, 5]: (3.5) %; Recurrence of CDI at visit 5 (Day 55) (patients/N) [1, 5]: 5/142; Recurrence of CDI (%) at visit 5 (Day 55) ([1]; Day 55, extended fidaxomicin or standard vancomycin, listed as FDX): 3.5%; Recurrence 30 days after end of treatment (%) [1, 6]: 3.5%; Recurrence 30 days after end of treatment (patients/N) [1, 6]: 5/142; Sustained clinical cure (%) at 30 days after end of treatment [1, 7]: (86.7) %; Sustained clinical cure at 30 days after end of treatment (patients/N) [1, 7]: 124/143; Sustained clinical cure (%) at 30 days after end of treatment ([1]; extended fidaxomicin Day 55, standard vancomycin Day 40, listed as FDX): 86.7%; CDI toxin in faecal stool samples, Negative (%) [2, 8]: (75%); CDI toxin in faecal stool samples, Negative (number of subjects) [2, 8]: 15; CDI toxin in faecal stool samples, Positive (%) [2, 8]: (25%); CDI toxin in faecal stool samples, Positive (number of subjects) [2, 8]: 5; CDI toxin in faecal stool samples, Negative (%) [2, 9]: (95.0%); CDI toxin in faecal stool samples, Negative (number of subjects) [2, 9]: 19; CDI toxin in faecal stool samples, Positive (%) [2, 9]: (5.0%); CDI toxin in faecal stool samples, Positive (number of subjects) [2, 9]: 1; CDI toxin in faecal stool samples, Negative (%) [2, 10]: (95.0%); CDI toxin in faecal stool samples, Negative (number of subjects) [2, 10]: 19; CDI toxin in faecal stool samples, Positive (%) [2, 10]: (5.0%); CDI toxin in faecal stool samples, Positive (number of subjects) [2, 10]: 1; Recurrence 30 days after end of treatment (%) [3]: 15.4%; Recurrence 30 days after end of treatment (patients/N) [3]: 39/253; Sustained clinical cure 30 days after end of treatment (%) [3]: 74.6%; Sustained clinical cure 30 days after end of treatment (patients/N) [3]: 214/287; Recurrence 30 days after end of treatment (%) [4]: 12.7%; Recurrence 30 days after end of treatment (patients/N) [4]: 28/221; Sustained clinical cure 30 days after end of treatment (%) [4]: 76.6%; Sustained clinical cure 30 days after end of treatment (patients/N) [4]: 193/252
